Publication PMC8704707 (Pharmaceuticals, 2021)
Converted amounts (≈) assume the structure as drawn. Counter-ions that a name gives are not always drawn. Like-named read-outs stand apart in the source and are kept apart here.

Key:
[1] = target: AChE from electric eel (EeAChE) (Electrophorus electricus, UniProt O42275); experiment: biochemical; type: biochemical
[2] = target: BuChE from equine serum (EqBuChE) (Equus caballus, UniProt P81908); experiment: biochemical
[3] = test system: Enterococcus faecalis ATCC 29212; experiment: Antibacterial microdilution broth method (EUCAST); type: cell-based
[4] = test system: Pseudomonas aeruginosa ATCC 27853; experiment: Antibacterial microdilution broth method (EUCAST); type: cell-based
[5] = test system: Klebsiella pneumoniae ATCC 10031; conditions: for MIC KP 24 h: 24 h incubation; for MIC KP 48 h: 48 h incubation
[6] = test system: Staphylococcus epidermidis ATCC 12228; experiment: Antibacterial microdilution broth method (EUCAST); type: cell-based
[7] = test system: methicillin-resistant Staphylococcus aureus ATCC 43300; experiment: Antibacterial microdilution broth method (EUCAST); type: cell-based; conditions: ATCC 43300 / MRSA
[8] = test system: Staphylococcus aureus ATCC 29213; experiment: Antibacterial microdilution broth method (EUCAST); type: cell-based
[9] = test system: Acinetobacter baumannii ATCC 19606; experiment: Antibacterial microdilution broth method (EUCAST); type: cell-based
[10] = test system: Escherichia coli ATCC 25922; experiment: Antibacterial microdilution broth method (EUCAST); type: cell-based
[11] = test system: Trichophyton interdigitale ATCC 9533; experiment: microbe, parasite or virus in culture; type: cell-based
[12] = test system: Candida tropicalis ATCC 750; experiment: microbe, parasite or virus in culture; type: cell-based
[13] = test system: Candida albicans ATCC 24443; experiment: microbe, parasite or virus in culture; type: cell-based
Candida krusei ATCC 6258 = experiment: microbe, parasite or virus in culture; type: cell-based; conditions: Pichia kudriavzevii
[14] = test system: Candida parapsilosis ATCC 22019; experiment: microbe, parasite or virus in culture; type: cell-based; conditions: Lodderomyces parapsilosis
[15] = mean ± SD, n = three independent experiments, BTCh 40 µM, read-out: IC50 BuChE
[16] = mean ± SD, n = three independent experiments, ATCh 40 µM, read-out: IC50 AChE
[17] = ATCC29212, 24 h, read-out: MIC EF 24 h
[18] = ATCC29212, 48 h, read-out: MIC EF 48 h
[19] = ATCC27853, 24 h, read-out: MIC PA 24 h
[20] = ATCC27853, 48 h, read-out: MIC PA 48 h
[21] = ATCC12228, 24 h, read-out: MIC SE 24 h
[22] = ATCC12228, 48 h, read-out: MIC SE 48 h
[23] = ATCC29213, 24 h, read-out: MIC SA 24 h
[24] = ATCC29213, 48 h, read-out: MIC SA 48 h
[25] = ATCC19606, 24 h, read-out: MIC ACI 24 h
[26] = ATCC19606, 48 h, read-out: MIC ACI 48 h
[27] = ATCC25922, 24 h, read-out: MIC EC 24 h
[28] = ATCC25922, 48 h, read-out: MIC EC 48 h

Chain of BuChE from equine serum (EqBuChE) (P81908 whole entry): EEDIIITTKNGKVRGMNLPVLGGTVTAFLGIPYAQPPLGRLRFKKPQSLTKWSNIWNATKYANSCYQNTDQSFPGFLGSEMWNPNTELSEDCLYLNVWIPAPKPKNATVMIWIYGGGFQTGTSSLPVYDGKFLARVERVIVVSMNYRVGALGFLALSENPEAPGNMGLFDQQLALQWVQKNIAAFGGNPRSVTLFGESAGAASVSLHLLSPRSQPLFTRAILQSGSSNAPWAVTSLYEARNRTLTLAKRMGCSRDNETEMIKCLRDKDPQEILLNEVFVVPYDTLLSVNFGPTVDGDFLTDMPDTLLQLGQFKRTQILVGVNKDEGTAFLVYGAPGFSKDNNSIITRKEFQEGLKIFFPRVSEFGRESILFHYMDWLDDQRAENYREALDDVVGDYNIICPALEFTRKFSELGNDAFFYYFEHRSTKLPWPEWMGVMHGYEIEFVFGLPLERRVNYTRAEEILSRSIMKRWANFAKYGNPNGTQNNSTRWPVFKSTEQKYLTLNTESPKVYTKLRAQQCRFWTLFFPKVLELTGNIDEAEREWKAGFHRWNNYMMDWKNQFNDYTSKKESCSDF
Chain of AChE from electric eel (EeAChE) (O42275 24-633): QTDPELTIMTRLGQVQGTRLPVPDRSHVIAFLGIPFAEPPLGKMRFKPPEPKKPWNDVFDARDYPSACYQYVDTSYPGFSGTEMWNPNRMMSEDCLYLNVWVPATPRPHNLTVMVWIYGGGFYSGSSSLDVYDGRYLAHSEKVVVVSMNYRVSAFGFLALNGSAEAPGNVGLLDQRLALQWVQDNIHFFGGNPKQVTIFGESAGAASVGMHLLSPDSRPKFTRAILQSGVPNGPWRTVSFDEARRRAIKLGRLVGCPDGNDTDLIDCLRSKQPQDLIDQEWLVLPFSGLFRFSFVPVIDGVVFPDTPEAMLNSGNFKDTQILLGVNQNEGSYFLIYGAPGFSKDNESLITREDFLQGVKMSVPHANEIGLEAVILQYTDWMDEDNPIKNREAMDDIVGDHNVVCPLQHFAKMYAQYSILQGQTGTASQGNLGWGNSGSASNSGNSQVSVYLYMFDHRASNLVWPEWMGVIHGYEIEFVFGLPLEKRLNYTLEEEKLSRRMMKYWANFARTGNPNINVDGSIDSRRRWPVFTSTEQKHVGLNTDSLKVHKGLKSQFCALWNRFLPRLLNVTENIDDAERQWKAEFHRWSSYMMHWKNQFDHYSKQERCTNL

Row | SMILES | Selectivity AChE/BuChE [1] | IC50 [2, 15] | IC50 [1, 16] | MIC [3, 17] | MIC [3, 18] | MIC [4, 19] | MIC [4, 20] | MIC KP 24 h [5] | MIC KP 48 h [5] | MIC [6, 21] | MIC [6, 22] | MIC ([7]; 24 h, read-out: MIC MRSA 24 h) | MIC ([7]; 48 h, read-out: MIC MRSA 48 h) | MIC [8, 23] | MIC [8, 24] | MIC [9, 25] | MIC [9, 26] | MIC [10, 27] | MIC [10, 28] | also measured
1 | [H]/N=C(\N)NN=Cc1cccc(Cl)c1 [Compound 1c, (E)-2-(3-Chlorobenzylidene)hydrazine-1-carboximidamide] | 1.06 | 41.5 ± 3.06 µM |  |  |  |  |  |  |  |  |  |  |  |  |  |  |  |  |  | IC50 [1]: 43.9 ± 0.76 µM
2 | [H]/N=C(\N)NN=Cc1ccco1 [Compound 3a, (E)-2-(Furan-2-ylmethylene)hydrazine-1-carboximidamide] | 0.50 | 82.3 ± 3.02 µM | 41.1 ± 0.54 µM |  |  |  |  |  |  |  |  |  |  |  |  |  |  |  |  | 
3 | [H]/N=C(\N)NN=Cc1c(O)cccc1Cl [Compound 1h, (E)-2-(6-Chloro-2-hydroxybenzylidene)hydrazine-1-carboximidamide] | 0.47 | 62.3 ± 1.08 µM | 29.5 ± 0.93 µM | > 500 µM | > 500 µM | > 500 µM | > 500 µM | >500 µM | >500 µM | 125 µM (≈ 26.6 µg/mL) | 250 µM (≈ 53.2 µg/mL) | > 500 µM | > 500 µM | 250 µM (≈ 53.2 µg/mL) | 500 µM (≈ 106 µg/mL) | 500 µM (≈ 106 µg/mL) | 500 µM (≈ 106 µg/mL) | > 500 µM | > 500 µM | 
4 | OC(Cn1cncn1)(Cn1cncn1)c1ccc(F)cc1F [FLU, fluconazole, reference compound] |  |  |  |  |  |  |  |  |  |  |  |  |  |  |  |  |  |  |  | IC50 ([11]; ATCC9533, 72 h, read-out: IC50 (50% growth inhibition) TI 72 h): 52.2 µM; IC50 ([11]; ATCC9533, 120 h, read-out: IC50 (50% growth inhibition) TI 120 h): 52.2 µM; IC50 ([12]; ATCC750, 24 h, read-out: IC50 (50% growth inhibition) CT 24 h): 6.5 µM; IC50 ([12]; ATCC750, 48 h, read-out: IC50 (50% growth inhibition) CT 48 h): 6.5 µM; IC50 ([13]; ATCC24443, 24 h, read-out: IC50 (50% growth inhibition) CA 24 h): 6.5 µM; IC50 ([13]; ATCC24443, 48 h, read-out: IC50 (50% growth inhibition) CA 48 h): 6.5 µM; IC50 (Candida krusei ATCC 6258; ATCC6258, 24 h, read-out: IC50 (50% growth inhibition) CK 24 h): > 104 µM; IC50 (Candida krusei ATCC 6258; ATCC6258, 48 h, read-out: IC50 (50% growth inhibition) CK 48 h): > 104 µM; IC50 ([14]; ATCC22019, 24 h, read-out: IC50 (50% growth inhibition) CP 24 h): 3.3 µM; IC50 ([14]; ATCC22019, 48 h, read-out: IC50 (50% growth inhibition) CP 48 h): 3.3 µM
5 | [H]/N=C(\N)NN=Cc1cc(Cl)ccc1O [Compound 1g, (E)-2-(5-Chloro-2-hydroxybenzylidene)hydrazine-1-carboximidamide] | 0.83 | 45.2 ± 0.86 µM | 37.4 ± 0.73 µM | 125 µM (≈ 26.6 µg/mL) | 250 µM (≈ 53.2 µg/mL) | 500 µM (≈ 106 µg/mL) | 500 µM (≈ 106 µg/mL) | 500 µM (≈ 106 µg/mL) | 500 µM (≈ 106 µg/mL) | 62.5 µM (≈ 13.3 µg/mL) | 62.5 µM (≈ 13.3 µg/mL) | 500 µM (≈ 106 µg/mL) | 500 µM (≈ 106 µg/mL) | 250 µM (≈ 53.2 µg/mL) | 250 µM (≈ 53.2 µg/mL) | 500 µM (≈ 106 µg/mL) | 500 µM (≈ 106 µg/mL) | 500 µM (≈ 106 µg/mL) | 500 µM (≈ 106 µg/mL) | 
6 | [H]/N=C(\N)NN=Cc1ccc(Cl)cc1O [Compound 1f, (E)-2-(4-Chloro-2-hydroxybenzylidene)hydrazine-1-carboximidamide] | 1.40 | 30.6 ± 1.51 µM | 42.8 ± 1.33 µM | 500 µM (≈ 106 µg/mL) | 500 µM (≈ 106 µg/mL) | 500 µM (≈ 106 µg/mL) | 500 µM (≈ 106 µg/mL) | 500 µM (≈ 106 µg/mL) | 500 µM (≈ 106 µg/mL) | 125 µM (≈ 26.6 µg/mL) | 125 µM (≈ 26.6 µg/mL) | 500 µM (≈ 106 µg/mL) | 500 µM (≈ 106 µg/mL) | 500 µM (≈ 106 µg/mL) | 500 µM (≈ 106 µg/mL) | 500 µM (≈ 106 µg/mL) | 500 µM (≈ 106 µg/mL) | 500 µM (≈ 106 µg/mL) | 500 µM (≈ 106 µg/mL) | 
7 | N=C(N/N=C/c1ccc([N+](=O)[O-])o1)N/N=C/c1ccc([N+](=O)[O-])o1 [Compound 3c, (E)-2-[(5-Nitrofuran-2-yl)methylene]-N’-[(E)-(5-nitrofuran-2-yl)methylene]hydrazine-1-carboximidamide hydrochloride] | <0.08 |  |  |  |  |  |  |  |  |  |  |  |  |  |  |  |  |  |  | IC50 [1]: 40 ± 2.56 µM; IC50 ([2]; IC50 BuChE): > 500 µM
8 | CCN1CCN(C(=O)N[C@@H](C(=O)N[C@@H]2C(=O)N3[C@@H]2SC(C)(C)[C@@H]3C(=O)O)c2ccccc2)C(=O)C1=O [PIP, piperacillin sodium salt, reference compound] |  |  |  | 1.85 µM | 1.85 µM | 14.8 µM | 14.8 µM | >59.31 µM | >59.31 µM | > 59.3 µM | > 59.3 µM | 14.8 µM | 14.8 µM | 1.85 µM | 1.85 µM | > 59.3 µM | > 59.3 µM | 7.41 µM | 7.41 µM | 
9 | NC(=O)N/N=C/c1ccc([N+](=O)[O-])o1 [Compound 3d, (E)-2-[(5-Nitrofuran-2-yl)methylene]hydrazine-1-carboxamide] | <0.07 | > 500 µM | 36.6 ± 0.69 µM | 500 µM (≈ 99.1 µg/mL) | 500 µM (≈ 99.1 µg/mL) | > 500 µM | > 500 µM | 62.5 µM (≈ 12.4 µg/mL) | 125 µM (≈ 24.8 µg/mL) | 31.2 µM (≈ 6.19 µg/mL) | 62.5 µM (≈ 12.4 µg/mL) | 62.5 µM (≈ 12.4 µg/mL) | 125 µM (≈ 24.8 µg/mL) | 62.5 µM (≈ 12.4 µg/mL) | 125 µM (≈ 24.8 µg/mL) | > 500 µM | > 500 µM | 125 µM (≈ 24.8 µg/mL) | 250 µM (≈ 49.5 µg/mL) | 
